The text below walks through data of patent publication US8211937B2, “7-pyrollyl 9-aminoacyl tetracycline compounds and methods of use thereof” (Paratek Pharmaceuticals, Inc., priority 2001, dated 2012).

Converted amounts (≈) assume the structure as drawn. Bounds are passed on as bounds.

What all share (test): MIC, broth microdilution growth inhibition
What all share (assay type): cell-based
Settings in all cases: Mueller-Hinton broth, 37° C., 18 h, unit assumed

One experiment relates to A. calcoaceticus 1726. The procedure:
(§1) Growth inhibitory activity was determined on liquid medium by the antibiotic dilution technique using 96-well microtiter system plates containing two-fold dilutions of antibiotic-agent in 0.2 ml. of Mueller-Hinton broth. Plates were inoculated with each test organism to yield a final inoculum of 5×10^5 CFU/ml and were incubated aerobically at 37° C. for 18 h. The MIC was defined as the lowest concentration of antibacterial agent that inhibited development of visible growth in the microdilution wells. GAR936 can be prepared e.g. as in J. Med Chem 1994, 37 184-188. Minocyline is available from e.g. Aldrich.

The subject of a further experiment is E. coli 851E. The procedure:
as §1

The test system of another experiment is E. coli 851ML308-225. The procedure:
as §1

Another experiment relates to E. coli D1-209 Tet R. The procedure:
as §1

The test system of the next experiment is E. coli D1-299 Tet R. On the procedure: as §1
In a further experiment the test system is E. faecalis 73 Tet R. The procedure: as §1
Another experiment has as its system E. faecalis ATCC 29212. The procedure:
as §1

The next experiment has as its system E. faecium 494. On the procedure: as §1
For the next experiment, the system named is E. faecium 97 Tet R. The procedure:
as §1

A further experiment concerns H. influenzae ATCC 4927. The procedure:
as §1

For another experiment, the system named is K. Pneumoniae 3226. The procedure: as §1
In experiment [1] the test system is M. catarrhalis ATCC 23246. On the procedure: as §1
A further experiment has as its system P. aeruginosa 3808. On the procedure:
as §1

The test system of a further experiment is S. aureus ATCC 29213. The procedure: as §1
The next experiment concerns S. aureus GFX01596 Tet R. On the procedure: as §1
Another experiment has as its system S. pneumoniae 157. On the procedure:
as §1

Experiment [2] has as its system S. pneumoniae GFX01778 Tet R. The procedure:
as §1

On to `CN(C)[C@@H]1C(O)=C(C(N)=O)C(=O)[C@@]2(O)C(O)=C3C(=O)c4c(O)ccc(-n5ccc(C#N)c5)c4C[C@H]3C[C@@H]12` [Compound A, [4S-(4aα,5aα,12aα)]-7-(3-Cyanopyrrol-1-yl)-4-(Dimethylamino)-1,4,4a,5,5a,6,11,12a-octahydro-3,10,12,12a-tetrahydroxy-1,11-dioxo-2-naphthacenecarboxamide], for which the MIC in the experiment on A. calcoaceticus 1726 is 8 mg/L (≈ 15.9 µM); in the experiment on E. coli 851E, 1 mg/L (≈ 1.98 µM); in the experiment with E. coli 851ML308-225 it was 0.5 mg/L (≈ 0.991 µM); in the experiment with E. coli D1-209 Tet R it was 16 mg/L (≈ 31.7 µM); against E. coli D1-299 Tet R, 4 mg/L (≈ 7.93 µM); in the experiment with E. faecalis 73 Tet R, 4 mg/L (≈ 7.93 µM). Further, the MIC in the experiment on E. faecalis ATCC 29212 is 2 mg/L (≈ 3.96 µM); in the experiment with E. faecium 494, 8 mg/L (≈ 15.9 µM); in the experiment with E. faecium 97 Tet R it was 8 mg/L (≈ 15.9 µM); against H. influenzae ATCC 4927, 0.5 mg/L (≈ 0.991 µM); with K. Pneumoniae 3226 it was > 128 mg/L; in [1], 0.001 mg/L (≈ 0.00198 µM). Further, the MIC with P. aeruginosa 3808 is > 128 mg/L; against S. aureus ATCC 29213, 0.015 mg/L (≈ 0.0297 µM); with S. aureus GFX01596 Tet R it was 0.5 mg/L (≈ 0.991 µM); against S. pneumoniae 157 it was 0.015 mg/L (≈ 0.0297 µM); in experiment [2], 2 mg/L (≈ 3.96 µM).
`CN(C)[C@@H]1C(O)=C(C(N)=O)C(=O)[C@@]2(O)C(O)=C3C(=O)c4c(O)ccc(-n5ccc(C=O)c5)c4C[C@H]3C[C@@H]12` [Compound B, [4S-(4aα,5aα,12aα)]-4-(Dimethylamino)-7-(1H-pyrrol-1-yl-3-carboxaldehyde)-1,4,4a,5,5a,6,11,12a-octahydro-3,10,12,12a-tetrahydroxy-1,11-dioxo-2-naphthacenecarboxamide]: the MIC was > 128 mg/L in the experiment on A. calcoaceticus 1726; 1 mg/L (≈ 1.97 µM) against E. coli 851E; 0.5 mg/L (≈ 0.985 µM) against E. coli 851ML308-225; > 128 mg/L in the experiment on E. coli D1-209 Tet R; 32 mg/L (≈ 63.1 µM) in the experiment on E. coli D1-299 Tet R; 8 mg/L (≈ 15.8 µM) with E. faecalis 73 Tet R. The MIC against E. faecalis ATCC 29212 was 2 mg/L (≈ 3.94 µM); with E. faecium 494 it was 32 mg/L (≈ 63.1 µM); with E. faecium 97 Tet R, > 128 mg/L; against H. influenzae ATCC 4927 it was 1 mg/L (≈ 1.97 µM); in the experiment with K. Pneumoniae 3226, > 128 mg/L; in experiment [1], 0.008 mg/L (≈ 0.0158 µM). For the same compound, the MIC is > 128 mg/L against P. aeruginosa 3808; 0.015 mg/L (≈ 0.0296 µM) in the experiment on S. aureus ATCC 29213; 0.25 mg/L (≈ 0.493 µM) with S. aureus GFX01596 Tet R; 0.015 mg/L (≈ 0.0296 µM) with S. pneumoniae 157; 2 mg/L (≈ 3.94 µM) in experiment [2].
Turning to `CN(C)CC(=O)Nc1cc(-n2ccc(C=O)c2)c2c(c1O)C(=O)C1=C(O)[C@]3(O)C(=O)C(C(N)=O)=C(O)[C@@H](N(C)C)[C@@H]3C[C@@H]1C2` [Compound C], the MIC is 16 mg/L (≈ 26.3 µM) in the experiment on A. calcoaceticus 1726; 1 mg/L (≈ 1.65 µM) with E. coli 851E; 0.03 mg/L (≈ 0.0494 µM) against E. coli 851ML308-225; 1 mg/L (≈ 1.65 µM) against E. coli D1-209 Tet R; 16 mg/L (≈ 26.3 µM) against E. coli D1-299 Tet R; 0.004 mg/L (≈ 0.00658 µM) against E. faecalis 73 Tet R. Moreover, the MIC in the experiment with E. faecalis ATCC 29212 was determined as 0.125 mg/L (≈ 0.206 µM); in the experiment with E. faecium 494, 0.25 mg/L (≈ 0.411 µM); against E. faecium 97 Tet R, 0.06 mg/L (≈ 0.0987 µM); in the experiment on H. influenzae ATCC 4927, 1 mg/L (≈ 1.65 µM); in the experiment on K. Pneumoniae 3226, 125 mg/L (≈ 206 µM); in experiment [1], 0.002 mg/L (≈ 0.00329 µM). Also, the MIC in the experiment with P. aeruginosa 3808 worked out at 32 mg/L (≈ 52.7 µM); against S. aureus ATCC 29213, 0.125 mg/L (≈ 0.206 µM); in the experiment with S. aureus GFX01596 Tet R, 4 mg/L (≈ 6.58 µM); with S. pneumoniae 157, 0.015 mg/L (≈ 0.0247 µM); in experiment [2], 0.03 mg/L (≈ 0.0494 µM).
Turning to `CN(C)c1cc(NC(=O)CNC(C)(C)C)c(O)c2c1C[C@H]1C[C@H]3[C@H](N(C)C)C(O)=C(C(N)=O)C(=O)[C@@]3(O)C(O)=C1C2=O` [GAR-936], the MIC is 32 mg/L (≈ 54.6 µM) in the experiment on A. calcoaceticus 1726; 1 mg/L (≈ 1.71 µM) against E. coli 851E; 0.5 mg/L (≈ 0.854 µM) in the experiment with E. coli D1-209 Tet R; 0.5 mg/L (≈ 0.854 µM) against E. coli D1-299 Tet R; 0.5 mg/L (≈ 0.854 µM) against E. faecalis 73 Tet R; 0.5 mg/L (≈ 0.854 µM) against E. faecalis ATCC 29212. Also, the MIC in the experiment with E. faecium 494 amounted to 0.5 mg/L (≈ 0.854 µM); against E. faecium 97 Tet R, 0.5 mg/L (≈ 0.854 µM); against H. influenzae ATCC 4927, 1 mg/L (≈ 1.71 µM); against K. Pneumoniae 3226, 2 mg/L (≈ 3.41 µM); in experiment [1], 0.12 mg/L (≈ 0.205 µM); with P. aeruginosa 3808 it was 32 mg/L (≈ 54.6 µM). Moreover, the MIC in the experiment on S. aureus ATCC 29213 was 0.5 mg/L (≈ 0.854 µM); against S. aureus GFX01596 Tet R it was 1 mg/L (≈ 1.71 µM); against S. pneumoniae 157 it was 0.25 mg/L (≈ 0.427 µM); in [2], 0.06 mg/L (≈ 0.102 µM).
`CN(C)c1ccc(O)c2c1C[C@H]1C[C@H]3[C@H](N(C)C)C(=O)C(C(N)=O)=C(O)[C@@]3(O)C(=O)C1=C2O` [MINO, Minocyline]: the MIC in the experiment with A. calcoaceticus 1726 is 1 mg/L (≈ 2.19 µM); against E. coli 851E, 0.5 mg/L (≈ 1.09 µM); in the experiment with E. coli 851ML308-225 it was 0.25 mg/L (≈ 0.546 µM); against E. coli D1-209 Tet R, 16 mg/L (≈ 35 µM); against E. coli D1-299 Tet R, 1 mg/L (≈ 2.19 µM); in the experiment with E. faecalis 73 Tet R it was 32 mg/L (≈ 69.9 µM). Further, the MIC worked out at 2 mg/L (≈ 4.37 µM) in the experiment on E. faecalis ATCC 29212; 32 mg/L (≈ 69.9 µM) in the experiment on E. faecium 494; 32 mg/L (≈ 69.9 µM) against E. faecium 97 Tet R; 0.5 mg/L (≈ 1.09 µM) against H. influenzae ATCC 4927; 32 mg/L (≈ 69.9 µM) in the experiment on K. Pneumoniae 3226; 0.001 mg/L (≈ 0.00219 µM) in experiment [1]. Also, the MIC was determined as 16 mg/L (≈ 35 µM) in the experiment with P. aeruginosa 3808; 0.03 mg/L (≈ 0.0656 µM) with S. aureus ATCC 29213; 0.12 mg/L (≈ 0.262 µM) against S. aureus GFX01596 Tet R; 0.5 mg/L (≈ 1.09 µM) with S. pneumoniae 157; 16 mg/L (≈ 35 µM) in experiment [2].
